Measured values taken from paper PMC5983484, “A receptor tyrosine kinase ROR1 inhibitor (KAN0439834) induced significant apoptosis of pancreatic cells which was enhanced by erlotinib and ibrutinib” (PLoS ONE, 2018).

Biological target: ROR1 (Homo sapiens, UniProt Q01973)
Assay: Western blot of pROR1 in PaCa-2 cells ([…] h), confirmed by human phospho-RTK array
Assay type: cell-based

ROR1, sequence (Q01973 30-937): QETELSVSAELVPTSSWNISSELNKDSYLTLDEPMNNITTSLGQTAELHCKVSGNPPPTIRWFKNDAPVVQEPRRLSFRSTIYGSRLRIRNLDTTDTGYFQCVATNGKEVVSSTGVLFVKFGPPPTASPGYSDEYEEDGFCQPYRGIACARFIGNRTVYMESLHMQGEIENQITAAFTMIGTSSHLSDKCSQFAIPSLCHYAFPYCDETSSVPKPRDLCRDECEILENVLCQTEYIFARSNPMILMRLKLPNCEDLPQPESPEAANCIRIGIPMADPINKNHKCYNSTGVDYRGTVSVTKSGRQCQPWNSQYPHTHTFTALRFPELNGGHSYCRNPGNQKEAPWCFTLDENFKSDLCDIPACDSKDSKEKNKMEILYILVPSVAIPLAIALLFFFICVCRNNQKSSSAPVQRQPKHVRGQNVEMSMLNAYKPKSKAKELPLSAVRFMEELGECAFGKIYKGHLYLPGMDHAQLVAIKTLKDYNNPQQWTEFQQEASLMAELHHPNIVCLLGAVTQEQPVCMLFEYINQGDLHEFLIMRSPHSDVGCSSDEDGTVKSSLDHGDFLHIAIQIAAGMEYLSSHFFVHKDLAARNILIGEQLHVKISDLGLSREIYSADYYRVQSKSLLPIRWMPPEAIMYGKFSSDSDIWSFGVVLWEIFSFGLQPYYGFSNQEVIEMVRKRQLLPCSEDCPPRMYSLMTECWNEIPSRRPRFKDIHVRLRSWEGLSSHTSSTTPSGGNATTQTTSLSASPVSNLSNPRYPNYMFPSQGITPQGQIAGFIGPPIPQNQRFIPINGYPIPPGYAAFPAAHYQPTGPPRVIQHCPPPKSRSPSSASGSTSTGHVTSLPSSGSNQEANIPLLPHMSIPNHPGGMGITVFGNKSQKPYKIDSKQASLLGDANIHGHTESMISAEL

- IC50: < 100 nM
Substance: KAN0439834
